According to PubChem BioAssay AID330 (DTP/NCI, 2004):
“And” between values parts separate entries of the source, which are not always exact repeats. Identical values can stand only once. Inconclusive results and toxic doses are left out. Rule for the calls: active = survival T/C of 150% or more; inactive = T/C below 125% in these data.

Tested on: P388 leukemia ip, CD2F1 mice, survival T/C
Experiment: NCI In Vivo Anticancer Drug Screen. Data for tumor model P388 Leukemia (intraperitoneal) in CD2F1 (CDF1) mice
Conditions: endpoint: median survival time, higher = longer survival
How it was run: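 Mice carrying the transplanted tumor received test compound or vehicle. Survival was recorded in each group, and the value is the treated-group measurement divided by that of the vehicle-treated control group.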

[1] = dose: 60.0 mg/kg/injection, schedule: Q01DX005 (ip), vehicle: saline with Tween-80
[2] = dose: 120.0 mg/kg/injection, schedule: Q01DX005 (ip), vehicle: saline with Tween-80
[3] = dose: 240.0 mg/kg/injection, schedule: Q01DX005 (ip), vehicle: saline with Tween-80
[4] = dose: 50.0 mg/kg/injection, schedule: Q01DX005 (ip), vehicle: saline with Tween-80
[5] = dose: 100.0 mg/kg/injection, schedule: Q01DX005 (ip), vehicle: saline with Tween-80
[6] = dose: 200.0 mg/kg/injection, schedule: Q01DX005 (ip), vehicle: saline with Tween-80
[7] = dose: 50.0 mg/kg/injection, schedule: Q01DX009 (ip), vehicle: saline with Tween-80
[8] = dose: 100.0 mg/kg/injection, schedule: Q01DX009 (ip), vehicle: saline with Tween-80
[9] = dose: 50.0 mg/kg/injection, schedule: Q01DX009 (ip), vehicle: Klucel (hydroxypropylcellulose) (HPC)
[10] = dose: 100.0 mg/kg/injection, schedule: Q01DX009 (ip), vehicle: Klucel (hydroxypropylcellulose) (HPC)
[11] = dose: 200.0 mg/kg/injection, schedule: Q01DX009 (ip), vehicle: Klucel (hydroxypropylcellulose) (HPC)
[12] = dose: 400.0 mg/kg/injection, schedule: Q01DX009 (ip), vehicle: Klucel (hydroxypropylcellulose) (HPC)
[13] = dose: 50.0 mg/kg/injection, schedule: Q01DX009 (ip), vehicle: saline
[14] = dose: 100.0 mg/kg/injection, schedule: Q01DX009 (ip), vehicle: saline
[15] = dose: 200.0 mg/kg/injection, schedule: Q01DX009 (ip), vehicle: saline
[16] = dose: 12.5 mg/kg/injection, schedule: Q01DX009 (ip), vehicle: saline with Tween-80
[17] = dose: 25.0 mg/kg/injection, schedule: Q01DX009 (ip), vehicle: saline with Tween-80
[18] = dose: 50.0 mg/kg/injection, schedule: Q01DX005 (ip), vehicle: Klucel (hydroxypropylcellulose) (HPC)
[19] = dose: 100.0 mg/kg/injection, schedule: Q01DX005 (ip), vehicle: Klucel (hydroxypropylcellulose) (HPC)

Measured: T/C

CC1(C)OC2OC3COP(=O)(c4ccccc4)C3(CC#N)C2O1 (stereo not drawn)
inactive: [1] 94 % of control | [2] 99 % of control | [3] 98 % of control

Cn1c(=O)c2c(nnc(-c3ccc(Cl)cc3)[n+]2[O-])n(C)c1=O
inactive: dose: 100.0 mg/kg/injection, schedule: Q01DX001 (ip), vehicle: Klucel (hydroxypropylcellulose) (HPC) 106 % of control

COc1ccc(C2/C(=N/O)CCCC2C)cc1 (stereo not drawn)
inactive: [4] 94 % of control | [5] 97 % of control | [6] 87 % of control

CC1=CC(Cc2ccccc2)N(C)CC1C (stereo not drawn)
inactive: [1] 97 % of control | [2] 91 % of control

NCCCCC(C(=O)NC(Cc1ccccc1)C(=O)O)N(C(=O)OCc1ccccc1)C(=O)OCc1ccccc1 (stereo not drawn)
inactive: [4] 96 % of control | [5] 101 % of control | [6] 92 % of control

CCOC(CNc1c[nH]c(=O)[nH]c1=O)OCC
inactive: [7] 100 % of control | [8] 100 % of control | dose: 200.0 mg/kg/injection, schedule: Q01DX009 (ip), vehicle: saline with Tween-80 103 % of control | dose: 400.0 mg/kg/injection, schedule: Q01DX009 (ip), vehicle: saline with Tween-80 100 % of control

CCOC(=O)c1c(C)[nH]c2c(-c3ccccc3)c3cc(Cl)ccc3nc12
inactive: [9] 103 % of control | [10] 109 % of control | [11] 104 % of control | [12] 99 % of control

CCC[CH2][Sn]([CH2]CCC)([O]C(C)=O)[c]1ccccc1
inactive: dose: 1.56 mg/kg/injection, schedule: Q01DX009 (ip), vehicle: saline 97 % of control | dose: 3.12 mg/kg/injection, schedule: Q01DX009 (ip), vehicle: saline 103 % of control | dose: 6.25 mg/kg/injection, schedule: Q01DX009 (ip), vehicle: saline 96 % of control | [13] 97 % of control | [14] 95 % of control | [15] 100 % of control

CC(C)c1ccc(/C(O)=C/C(=O)C(=O)/C=C(/O)c2ccc(C(C)C)cc2)cc1
inactive: dose: 100.0 mg/kg/injection, schedule: Q04DX002 (ip), vehicle: saline 100 % of control | dose: 200.0 mg/kg/injection, schedule: Q04DX002 (ip), vehicle: saline 100 % of control | dose: 400.0 mg/kg/injection, schedule: Q04DX002 (ip), vehicle: saline 99 % of control

CS(=O)(=O)[O][Sn]([CH3])([CH3])[O]S(C)(=O)=O
inactive: dose: 6.25 mg/kg/injection, schedule: Q04DX003 (ip), vehicle: saline 104 % of control | dose: 12.5 mg/kg/injection, schedule: Q04DX003 (ip), vehicle: saline 109 % of control | dose: 25.0 mg/kg/injection, schedule: Q04DX003 (ip), vehicle: saline 110 % of control

CC(=O)Nc1ccc(S(=O)(=O)/C(=C\c2ccc(Cl)o2)c2ccc([N+](=O)[O-])o2)cc1
inactive: dose: 50.0 mg/kg/injection, schedule: Q01DX009 (ip), vehicle: suspension in saline 86 % of control | dose: 100.0 mg/kg/injection, schedule: Q01DX009 (ip), vehicle: suspension in saline 88 % of control | dose: 200.0 mg/kg/injection, schedule: Q01DX009 (ip), vehicle: suspension in saline 92 % of control

CCO/C=N\Nc1ccc2nnc(Cl)n2n1
inactive: [13] 92 % of control | [14] 103 % of control | [15] 93 % of control

CC1(C)Oc2ccccc2O1
inactive: [16] 96 % of control | [17] 108 % of control | [7] 107 % of control | [8] 113 % of control

CCCOc1cc2c(cc1C(C)c1ccccc1)OCO2 (stereo not drawn)
inactive: [4] 101 % of control | [5] 95 % of control | [6] 96 % of control

COc1cc2c(cc1OC)C1C(C)c3ccc(OC)c(OC)c3CN1CC2 (stereo not drawn)
inactive: dose: 12.5 mg/kg/injection, schedule: Q01DX009 (ip), vehicle: saline 88 % of control | dose: 25.0 mg/kg/injection, schedule: Q01DX009 (ip), vehicle: saline 104 % of control | [13] 107 % of control | dose: 50.0 mg/kg/injection, schedule: Q04DX003 (ip), vehicle: distilled water + Tween-80 93 % of control | dose: 100.0 mg/kg/injection, schedule: Q04DX003 (ip), vehicle: distilled water + Tween-80 87 % of control | dose: 200.0 mg/kg/injection, schedule: Q04DX003 (ip), vehicle: distilled water + Tween-80 87 % of control | dose: 400.0 mg/kg/injection, schedule: Q01DX009 (ip), vehicle: saline 94 % of control | dose: 400.0 mg/kg/injection, schedule: Q04DX003 (ip), vehicle: distilled water + Tween-80 91 % of control

COC(=O)c1cc(=O)n(Cc2ccco2)c(=Nc2ccccc2)s1
inactive: [4] 98 % of control | [5] 97 % of control | [6] 94 % of control

c1ccc2c(c1)[nH]c1c2c(N2CCOCC2)nn2cnnc12
inactive: dose: 6.25 mg/kg/injection, schedule: Q01DX005 (ip), vehicle: Klucel (hydroxypropylcellulose) (HPC) 101 % of control | dose: 12.5 mg/kg/injection, schedule: Q01DX005 (ip), vehicle: Klucel (hydroxypropylcellulose) (HPC) 100 % of control | dose: 25.0 mg/kg/injection, schedule: Q01DX005 (ip), vehicle: Klucel (hydroxypropylcellulose) (HPC) 89 % of control | [18] 99 % of control | [1] 95 % of control | [19] 100 % of control | [2] 93 % of control | [3] 98 % of control

COC1C(=O)OC(=O)C1OC (stereo not drawn)
inactive: dose: 15.0 mg/kg/injection, schedule: Q01DX005 (ip), vehicle: saline 109 % of control and 117 % of control | dose: 30.0 mg/kg/injection, schedule: Q01DX005 (ip), vehicle: saline 102 % of control and 117 % of control | dose: 60.0 mg/kg/injection, schedule: Q01DX005 (ip), vehicle: saline 100 % of control and 109 % of control and 90 % of control

S=C(S)N1CCCC1
inactive: [13] 100 % of control | [14] 93 % of control

CCCCCCCCCCCCSC(SCCCCCCCCCCCC)c1ccc(OCC(=O)O)cc1
inactive: dose: 25.0 mg/kg/injection, schedule: Q04DX003 (ip), vehicle: DMSO 96 % of control | dose: 50.0 mg/kg/injection, schedule: Q04DX003 (ip), vehicle: DMSO 91 % of control | dose: 100.0 mg/kg/injection, schedule: Q04DX003 (ip), vehicle: DMSO 94 % of control | dose: 200.0 mg/kg/injection, schedule: Q04DX003 (ip), vehicle: DMSO 91 % of control

Cn1nc2c(c(Cl)c1=O)Nc1ccccc1O2
inactive: [1] 108 % of control | [2] 104 % of control | [3] 96 % of control

N#CCCSC(=S)N1CCCCC1
inactive: dose: 25.0 mg/kg/injection, schedule: Q01DX009 (ip), vehicle: Klucel (hydroxypropylcellulose) (HPC) 104 % of control | [9] 104 % of control and 87 % of control | [10] 98 % of control and 101 % of control | [11] 90 % of control and 93 % of control | [12] 101 % of control

CC1C(=O)N(c2ccccc2)c2nc3ccccc3nc21 (stereo not drawn)
inactive: dose: 100.0 mg/kg/injection, schedule: Q04DX003 (ip), vehicle: saline 88 % of control | dose: 200.0 mg/kg/injection, schedule: Q04DX003 (ip), vehicle: saline 97 % of control | dose: 400.0 mg/kg/injection, schedule: Q04DX003 (ip), vehicle: saline 111 % of control

CC1=C2C(=CC(C)(C)[C@@H]2O)C(=O)[C@](C)(O)C12CC2
inactive: dose: 0.26 mg/kg/injection, schedule: Q01DX010 (ip), vehicle: saline 110 % of control | dose: 0.4 mg/kg/injection, schedule: Q01DX010 (ip), vehicle: saline 110 % of control | dose: 0.6 mg/kg/injection, schedule: Q01DX010 (ip), vehicle: saline 115 % of control | dose: 45.0 micrograms/kg/injection, schedule: Q01DX010 (ip), vehicle: saline 100 % of control | dose: 90.0 micrograms/kg/injection, schedule: Q01DX010 (ip), vehicle: saline 104 % of control | dose: 180.0 micrograms/kg/injection, schedule: Q01DX010 (ip), vehicle: saline 113 % of control

COc1cc2c(cc1Cc1ccc3c(c1)OCO3)OCO2
inactive: [18] 94 % of control | [19] 92 % of control | dose: 200.0 mg/kg/injection, schedule: Q01DX005 (ip), vehicle: Klucel (hydroxypropylcellulose) (HPC) 89 % of control

O=C(Cc1nc(-c2ccc(Cl)cc2)no1)c1ccccc1
inactive: [7] 91 % of control | [8] 87 % of control

Cc1cccc2c(C(=O)O)cc(-c3ccc(Cl)cc3)nc12
inactive: [16] 104 % of control | [17] 99 % of control | [7] 108 % of control
